Data taken from PMC6704710, “Preclinical evaluation of 3D185, a novel potent inhibitor of FGFR1/2/3 and CSF-1R, in FGFR-dependent and macrophage-dominant cancer models” (Journal of Experimental & Clinical Cancer Research : CR, 2019).

Columns and labels:
Test in all cases: Eurofins kinase panel
Assay type in all cases: biochemical
[1] = biological target: T1, CaMKIV(h) (Homo sapiens, UniProt Q16566); details: read-out: Inhibition rate (%)
T1 construct: purchased Eurofins (KinaseProfiler)
T1 sequence (Q16566 1-473): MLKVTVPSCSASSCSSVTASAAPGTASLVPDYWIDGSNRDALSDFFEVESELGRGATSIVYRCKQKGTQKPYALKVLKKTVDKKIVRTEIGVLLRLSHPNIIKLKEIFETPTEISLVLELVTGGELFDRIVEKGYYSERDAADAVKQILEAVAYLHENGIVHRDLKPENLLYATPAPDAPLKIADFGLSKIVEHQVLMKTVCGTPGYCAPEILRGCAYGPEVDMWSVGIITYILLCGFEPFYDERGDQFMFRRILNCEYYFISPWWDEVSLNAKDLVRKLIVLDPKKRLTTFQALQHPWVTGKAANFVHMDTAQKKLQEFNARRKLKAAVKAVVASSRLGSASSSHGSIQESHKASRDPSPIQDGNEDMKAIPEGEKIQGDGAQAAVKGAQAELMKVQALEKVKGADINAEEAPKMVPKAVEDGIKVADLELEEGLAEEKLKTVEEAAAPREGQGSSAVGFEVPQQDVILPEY

[2] = biological target: FGFR2(h) (Homo sapiens, UniProt P21802)
[3] = biological target: T2, LOK(h) (Homo sapiens, UniProt O94804); details: read-out: Inhibition rate (%)
T2 construct: purchased Eurofins (KinaseProfiler)

[4] = biological target: T3, DCAMKL3(h) (Homo sapiens, UniProt Q9C098); details: read-out: Inhibition rate (%)
T3 construct: purchased Eurofins (KinaseProfiler)
T3 sequence (Q9C098 1-648): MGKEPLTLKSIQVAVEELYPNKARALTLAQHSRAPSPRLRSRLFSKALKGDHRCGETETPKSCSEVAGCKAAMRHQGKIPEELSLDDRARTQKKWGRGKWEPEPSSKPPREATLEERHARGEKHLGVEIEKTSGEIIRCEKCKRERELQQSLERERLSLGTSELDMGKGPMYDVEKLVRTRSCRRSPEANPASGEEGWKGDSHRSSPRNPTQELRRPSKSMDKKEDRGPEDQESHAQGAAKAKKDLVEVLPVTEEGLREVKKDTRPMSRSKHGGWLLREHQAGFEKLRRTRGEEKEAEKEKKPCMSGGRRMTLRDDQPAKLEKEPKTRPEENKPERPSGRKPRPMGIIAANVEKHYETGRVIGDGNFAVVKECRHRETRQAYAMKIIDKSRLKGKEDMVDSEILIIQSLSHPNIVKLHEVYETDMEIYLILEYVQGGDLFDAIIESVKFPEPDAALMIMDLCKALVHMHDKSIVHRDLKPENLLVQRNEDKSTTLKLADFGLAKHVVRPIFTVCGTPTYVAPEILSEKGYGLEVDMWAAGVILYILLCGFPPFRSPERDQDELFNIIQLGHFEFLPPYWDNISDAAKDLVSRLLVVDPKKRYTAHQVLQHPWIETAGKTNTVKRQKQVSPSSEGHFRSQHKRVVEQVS

[5] = biological target: T4, NDR2(h) (Homo sapiens, UniProt Q9Y2H1); details: read-out: Inhibition rate (%)
T4 construct: purchased Eurofins (KinaseProfiler)

[6] = biological target: T5, PI3 Kinase (p110β/p85α)(h) (Homo sapiens, UniProt P42338); details: read-out: Inhibition rate (%)
T5 construct: purchased Eurofins (KinaseProfiler)

[7] = biological target: T6, MAK(h) (Homo sapiens, UniProt P20794); details: read-out: Inhibition rate (%)
T6 construct: purchased Eurofins (KinaseProfiler)
T6 sequence (P20794 1-623): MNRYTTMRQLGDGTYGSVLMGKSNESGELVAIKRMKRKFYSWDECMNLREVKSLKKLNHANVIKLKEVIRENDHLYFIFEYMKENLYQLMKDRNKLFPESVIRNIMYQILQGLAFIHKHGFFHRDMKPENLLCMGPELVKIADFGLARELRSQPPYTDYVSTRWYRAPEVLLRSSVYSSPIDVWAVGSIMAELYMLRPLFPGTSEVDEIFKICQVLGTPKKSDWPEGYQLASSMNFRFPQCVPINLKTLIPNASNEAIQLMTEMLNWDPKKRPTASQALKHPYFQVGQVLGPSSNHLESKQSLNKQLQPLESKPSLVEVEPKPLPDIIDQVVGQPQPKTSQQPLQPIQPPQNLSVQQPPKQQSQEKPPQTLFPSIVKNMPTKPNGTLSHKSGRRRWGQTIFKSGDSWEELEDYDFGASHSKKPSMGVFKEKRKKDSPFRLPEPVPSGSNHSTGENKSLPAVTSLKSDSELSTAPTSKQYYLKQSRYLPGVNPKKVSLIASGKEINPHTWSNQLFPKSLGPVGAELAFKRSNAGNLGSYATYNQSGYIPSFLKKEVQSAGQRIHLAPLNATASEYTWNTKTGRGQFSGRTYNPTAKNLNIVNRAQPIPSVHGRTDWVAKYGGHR

[8] = test system: CK1(y)

T2 sequence (O94804 whole entry): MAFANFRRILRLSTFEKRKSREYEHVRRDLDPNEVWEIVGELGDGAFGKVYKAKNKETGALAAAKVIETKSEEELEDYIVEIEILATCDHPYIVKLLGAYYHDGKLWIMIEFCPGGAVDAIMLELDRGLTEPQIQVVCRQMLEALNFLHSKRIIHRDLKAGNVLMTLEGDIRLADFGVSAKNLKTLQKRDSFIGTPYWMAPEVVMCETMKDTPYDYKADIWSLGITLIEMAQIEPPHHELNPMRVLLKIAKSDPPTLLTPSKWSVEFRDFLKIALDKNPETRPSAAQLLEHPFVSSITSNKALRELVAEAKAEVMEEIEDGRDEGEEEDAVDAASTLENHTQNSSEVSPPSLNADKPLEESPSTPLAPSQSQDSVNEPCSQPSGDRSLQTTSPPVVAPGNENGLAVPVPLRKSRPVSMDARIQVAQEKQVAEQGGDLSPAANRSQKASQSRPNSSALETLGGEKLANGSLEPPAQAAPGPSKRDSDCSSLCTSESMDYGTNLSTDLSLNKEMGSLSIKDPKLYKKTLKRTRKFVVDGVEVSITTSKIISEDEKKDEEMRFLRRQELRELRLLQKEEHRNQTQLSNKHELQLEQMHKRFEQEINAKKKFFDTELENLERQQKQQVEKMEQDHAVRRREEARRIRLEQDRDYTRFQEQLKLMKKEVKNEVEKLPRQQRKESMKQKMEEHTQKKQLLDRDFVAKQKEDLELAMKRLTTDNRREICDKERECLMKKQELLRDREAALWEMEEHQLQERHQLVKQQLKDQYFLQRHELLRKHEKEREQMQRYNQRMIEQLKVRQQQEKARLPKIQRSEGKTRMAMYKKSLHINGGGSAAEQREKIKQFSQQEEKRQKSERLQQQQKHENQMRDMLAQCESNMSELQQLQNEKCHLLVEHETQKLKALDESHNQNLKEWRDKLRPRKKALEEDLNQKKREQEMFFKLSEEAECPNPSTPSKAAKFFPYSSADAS
T5 sequence (P42338 whole entry): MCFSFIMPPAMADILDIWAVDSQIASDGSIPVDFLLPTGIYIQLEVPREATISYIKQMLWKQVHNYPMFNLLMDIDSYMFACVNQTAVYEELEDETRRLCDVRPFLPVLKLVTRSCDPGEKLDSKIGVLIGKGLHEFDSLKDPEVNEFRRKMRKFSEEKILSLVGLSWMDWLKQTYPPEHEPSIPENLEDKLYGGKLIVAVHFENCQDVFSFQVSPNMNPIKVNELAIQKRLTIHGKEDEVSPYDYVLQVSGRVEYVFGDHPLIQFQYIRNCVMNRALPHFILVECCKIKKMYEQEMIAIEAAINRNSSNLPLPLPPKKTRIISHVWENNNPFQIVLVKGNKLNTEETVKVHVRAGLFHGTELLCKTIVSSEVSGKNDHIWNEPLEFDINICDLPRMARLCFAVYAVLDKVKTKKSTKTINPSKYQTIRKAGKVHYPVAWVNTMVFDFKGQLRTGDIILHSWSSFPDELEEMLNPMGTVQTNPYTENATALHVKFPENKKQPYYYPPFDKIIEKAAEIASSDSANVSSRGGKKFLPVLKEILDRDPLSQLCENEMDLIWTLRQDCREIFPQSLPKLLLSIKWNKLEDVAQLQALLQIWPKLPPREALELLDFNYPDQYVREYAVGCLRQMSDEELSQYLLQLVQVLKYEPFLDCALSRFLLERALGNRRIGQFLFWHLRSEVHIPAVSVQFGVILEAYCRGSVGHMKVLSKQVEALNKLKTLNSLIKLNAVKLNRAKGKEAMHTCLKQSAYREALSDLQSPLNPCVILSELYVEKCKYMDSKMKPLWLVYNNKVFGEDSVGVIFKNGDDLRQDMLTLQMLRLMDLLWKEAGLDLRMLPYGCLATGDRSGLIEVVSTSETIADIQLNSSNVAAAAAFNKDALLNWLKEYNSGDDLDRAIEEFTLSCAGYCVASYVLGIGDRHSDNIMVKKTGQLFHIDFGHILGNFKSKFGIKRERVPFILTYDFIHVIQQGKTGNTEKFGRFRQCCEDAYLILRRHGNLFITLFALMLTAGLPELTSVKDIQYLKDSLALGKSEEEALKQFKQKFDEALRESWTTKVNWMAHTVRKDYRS
T5 sequence (P27986 whole entry partner): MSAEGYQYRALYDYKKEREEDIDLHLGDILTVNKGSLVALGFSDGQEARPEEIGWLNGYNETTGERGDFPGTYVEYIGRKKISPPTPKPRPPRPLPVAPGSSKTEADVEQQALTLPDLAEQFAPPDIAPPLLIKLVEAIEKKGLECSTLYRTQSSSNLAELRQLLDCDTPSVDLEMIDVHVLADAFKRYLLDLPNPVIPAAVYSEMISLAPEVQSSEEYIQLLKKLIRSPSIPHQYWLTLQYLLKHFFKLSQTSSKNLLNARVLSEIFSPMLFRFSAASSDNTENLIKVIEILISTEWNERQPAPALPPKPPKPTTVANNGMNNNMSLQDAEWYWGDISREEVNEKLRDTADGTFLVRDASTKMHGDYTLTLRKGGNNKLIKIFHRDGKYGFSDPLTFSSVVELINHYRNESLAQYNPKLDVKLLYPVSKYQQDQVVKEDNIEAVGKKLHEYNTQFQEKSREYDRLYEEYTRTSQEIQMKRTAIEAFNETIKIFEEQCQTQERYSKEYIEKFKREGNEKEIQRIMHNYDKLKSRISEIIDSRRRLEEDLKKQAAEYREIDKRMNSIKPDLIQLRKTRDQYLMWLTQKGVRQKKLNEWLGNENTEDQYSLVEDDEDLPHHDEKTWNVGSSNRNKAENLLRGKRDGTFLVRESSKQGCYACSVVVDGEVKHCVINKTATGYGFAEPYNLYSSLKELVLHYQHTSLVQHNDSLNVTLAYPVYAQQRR
FGFR2(h), sequence (P21802 22-821): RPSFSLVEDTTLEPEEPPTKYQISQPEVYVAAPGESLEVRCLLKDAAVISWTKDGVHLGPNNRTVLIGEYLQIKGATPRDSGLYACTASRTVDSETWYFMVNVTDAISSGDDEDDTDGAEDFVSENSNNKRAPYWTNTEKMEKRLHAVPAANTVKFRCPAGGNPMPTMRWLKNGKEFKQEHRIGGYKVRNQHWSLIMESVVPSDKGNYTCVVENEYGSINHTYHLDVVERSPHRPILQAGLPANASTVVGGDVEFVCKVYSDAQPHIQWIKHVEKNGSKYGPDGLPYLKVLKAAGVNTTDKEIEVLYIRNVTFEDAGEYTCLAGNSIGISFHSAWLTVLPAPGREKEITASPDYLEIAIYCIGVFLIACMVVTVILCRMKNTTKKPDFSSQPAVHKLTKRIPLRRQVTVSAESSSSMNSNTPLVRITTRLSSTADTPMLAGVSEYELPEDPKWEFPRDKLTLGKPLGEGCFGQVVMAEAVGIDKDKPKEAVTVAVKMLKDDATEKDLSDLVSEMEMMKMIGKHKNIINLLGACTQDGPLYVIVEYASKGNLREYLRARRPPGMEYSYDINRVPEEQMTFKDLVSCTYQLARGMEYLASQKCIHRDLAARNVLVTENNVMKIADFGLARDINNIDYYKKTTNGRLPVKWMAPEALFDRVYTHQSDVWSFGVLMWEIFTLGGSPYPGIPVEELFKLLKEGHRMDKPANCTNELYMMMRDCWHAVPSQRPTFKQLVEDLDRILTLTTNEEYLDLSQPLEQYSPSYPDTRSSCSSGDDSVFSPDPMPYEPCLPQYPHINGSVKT
T4 sequence (Q9Y2H1 whole entry): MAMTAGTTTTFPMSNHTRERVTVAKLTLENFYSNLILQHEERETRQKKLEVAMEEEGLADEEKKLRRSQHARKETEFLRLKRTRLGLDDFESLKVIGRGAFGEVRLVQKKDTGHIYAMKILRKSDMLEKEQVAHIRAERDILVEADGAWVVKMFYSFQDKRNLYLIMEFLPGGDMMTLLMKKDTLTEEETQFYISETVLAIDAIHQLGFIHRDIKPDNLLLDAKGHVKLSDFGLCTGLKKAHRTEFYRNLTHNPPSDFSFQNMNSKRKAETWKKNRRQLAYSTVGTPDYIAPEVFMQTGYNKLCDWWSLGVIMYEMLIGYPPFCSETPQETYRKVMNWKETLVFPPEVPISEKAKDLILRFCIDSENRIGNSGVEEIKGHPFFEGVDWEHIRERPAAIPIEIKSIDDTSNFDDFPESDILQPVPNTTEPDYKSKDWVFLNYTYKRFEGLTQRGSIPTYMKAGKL

Compound: COc1cc(OC)c(Cl)c(-c2ccc3c(NC(=O)c4ccc(N5CCNC(C)(C)C5)cc4)n[nH]c3n2)c1Cl [3D185]
- inhibition at 0.01 µM ([1]; 10 nM): -6%
- inhibition at 0.1 µM ([1]; 100 nM): -21%
- inhibition at 1 µM ([1]; 1000 nM): -22%
- IC50 ([2]; estimated from 372-kinase panel): < 10 nM
- inhibition at 0.01 µM ([2]; read-out: Inhibition rate (%)): 93%
- inhibition at 0.1 µM ([2]; read-out: Inhibition rate (%)): 98%
- inhibition at 1 µM ([2]; read-out: Inhibition rate (%)): 100%
- inhibition at 0.01 µM ([3]; 10 nM): 1%
- inhibition at 0.1 µM ([3]; 100 nM): 27%
- inhibition at 1 µM ([3]; 1000 nM): 77%
- inhibition at 0.01 µM ([4]; 10 nM): 5%
- inhibition at 0.1 µM ([4]; 100 nM): 7%
- inhibition at 1 µM ([4]; 1000 nM): 16%
- inhibition at 0.01 µM ([5]; 10 nM): 2%
- inhibition at 0.1 µM ([5]; 100 nM): -8%
- inhibition at 1 µM ([5]; 1000 nM): 1%
- inhibition at 0.01 µM ([6]; 10 nM): 0%
- inhibition at 0.1 µM ([6]; 100 nM): 1%
- inhibition at 1 µM ([6]; 1000 nM): 4%
- inhibition at 0.01 µM ([7]; 10 nM): -1%
- inhibition at 0.1 µM ([7]; 100 nM): -9%
- inhibition at 1 µM ([7]; 1000 nM): -17%
- Inhibition rate (%) ([8]; 10 nM): -1%
- Inhibition rate (%) ([8]; 100 nM): 0%
- Inhibition rate (%) ([8]; 1000 nM): 2%
